Test results from patent US20090298820A1, “3-SUBSTITUTED-1H-PYRROLO[2,3-B]PYRIDINE AND 3-SUBSTITUTED-1H-PYRROLO[3,2-B]PYRIDINE COMPOUNDS, THEIR USE AS MTOR KINASE AND PI3 KINASE INHIBITORS, AND THEIR SYNTHESES” (Wyeth, priority 2008, published 2009).
Read-outs that look alike come from different tables or passages of the source.

Columns and labels:
[1] = target: PI3Kα (Homo sapiens, UniProt P42336); experiment: PI3K-alpha fluorescence polarization assay; type: biochemical; settings: read-out: PI3Kα Median IC50
PI3Kα, sequence (P42336 whole entry, species assumed): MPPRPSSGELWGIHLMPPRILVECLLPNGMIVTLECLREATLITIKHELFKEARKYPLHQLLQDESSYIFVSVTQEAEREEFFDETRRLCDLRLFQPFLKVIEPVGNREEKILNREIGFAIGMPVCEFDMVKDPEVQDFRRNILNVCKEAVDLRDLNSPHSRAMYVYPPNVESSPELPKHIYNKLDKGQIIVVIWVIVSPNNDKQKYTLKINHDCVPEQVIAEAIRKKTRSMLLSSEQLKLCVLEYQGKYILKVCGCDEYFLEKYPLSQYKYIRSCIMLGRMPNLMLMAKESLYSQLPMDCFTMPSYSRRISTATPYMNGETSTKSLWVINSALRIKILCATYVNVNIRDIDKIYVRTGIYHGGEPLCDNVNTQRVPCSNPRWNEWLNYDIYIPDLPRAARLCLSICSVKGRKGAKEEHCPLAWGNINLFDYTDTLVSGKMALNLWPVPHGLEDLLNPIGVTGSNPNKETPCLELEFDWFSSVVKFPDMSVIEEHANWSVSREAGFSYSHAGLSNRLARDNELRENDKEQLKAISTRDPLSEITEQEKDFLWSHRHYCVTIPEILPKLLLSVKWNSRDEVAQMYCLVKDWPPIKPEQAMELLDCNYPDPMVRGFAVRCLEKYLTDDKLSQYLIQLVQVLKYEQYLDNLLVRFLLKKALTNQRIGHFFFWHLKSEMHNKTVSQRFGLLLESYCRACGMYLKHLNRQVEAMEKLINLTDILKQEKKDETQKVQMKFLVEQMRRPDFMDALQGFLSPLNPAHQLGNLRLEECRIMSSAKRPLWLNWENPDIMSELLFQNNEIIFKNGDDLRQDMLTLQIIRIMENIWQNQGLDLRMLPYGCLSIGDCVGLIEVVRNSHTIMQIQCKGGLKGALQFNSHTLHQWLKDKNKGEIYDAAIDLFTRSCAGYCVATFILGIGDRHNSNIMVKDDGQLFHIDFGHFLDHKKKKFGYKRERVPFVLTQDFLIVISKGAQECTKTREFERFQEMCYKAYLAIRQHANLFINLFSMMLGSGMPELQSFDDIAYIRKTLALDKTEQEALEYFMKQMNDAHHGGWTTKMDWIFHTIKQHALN
PI3Kα, sequence (P27986 whole entry partner, species assumed): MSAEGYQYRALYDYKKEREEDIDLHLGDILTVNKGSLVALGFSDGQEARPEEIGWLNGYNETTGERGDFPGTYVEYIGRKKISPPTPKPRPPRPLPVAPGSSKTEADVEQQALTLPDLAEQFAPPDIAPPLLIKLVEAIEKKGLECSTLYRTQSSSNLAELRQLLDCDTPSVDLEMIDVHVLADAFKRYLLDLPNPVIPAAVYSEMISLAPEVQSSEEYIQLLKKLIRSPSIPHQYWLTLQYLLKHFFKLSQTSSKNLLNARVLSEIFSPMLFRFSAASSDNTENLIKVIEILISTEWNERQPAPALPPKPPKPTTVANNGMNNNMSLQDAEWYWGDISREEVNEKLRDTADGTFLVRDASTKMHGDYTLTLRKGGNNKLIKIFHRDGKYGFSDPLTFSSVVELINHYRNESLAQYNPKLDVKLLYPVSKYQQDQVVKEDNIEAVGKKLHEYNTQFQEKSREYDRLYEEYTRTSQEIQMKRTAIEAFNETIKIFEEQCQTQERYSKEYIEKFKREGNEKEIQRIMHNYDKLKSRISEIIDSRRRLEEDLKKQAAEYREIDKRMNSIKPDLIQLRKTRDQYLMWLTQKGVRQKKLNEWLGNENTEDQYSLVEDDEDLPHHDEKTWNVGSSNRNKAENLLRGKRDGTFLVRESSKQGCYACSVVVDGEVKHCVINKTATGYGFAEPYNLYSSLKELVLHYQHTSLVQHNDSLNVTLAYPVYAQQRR

[2] = target: PI3Kγ (Homo sapiens, UniProt P48736); experiment: PI3K-gamma fluorescence polarization assay; type: biochemical; settings: read-out: PI3Kγ Median IC50
PI3Kγ, sequence (P48736 whole entry, species assumed): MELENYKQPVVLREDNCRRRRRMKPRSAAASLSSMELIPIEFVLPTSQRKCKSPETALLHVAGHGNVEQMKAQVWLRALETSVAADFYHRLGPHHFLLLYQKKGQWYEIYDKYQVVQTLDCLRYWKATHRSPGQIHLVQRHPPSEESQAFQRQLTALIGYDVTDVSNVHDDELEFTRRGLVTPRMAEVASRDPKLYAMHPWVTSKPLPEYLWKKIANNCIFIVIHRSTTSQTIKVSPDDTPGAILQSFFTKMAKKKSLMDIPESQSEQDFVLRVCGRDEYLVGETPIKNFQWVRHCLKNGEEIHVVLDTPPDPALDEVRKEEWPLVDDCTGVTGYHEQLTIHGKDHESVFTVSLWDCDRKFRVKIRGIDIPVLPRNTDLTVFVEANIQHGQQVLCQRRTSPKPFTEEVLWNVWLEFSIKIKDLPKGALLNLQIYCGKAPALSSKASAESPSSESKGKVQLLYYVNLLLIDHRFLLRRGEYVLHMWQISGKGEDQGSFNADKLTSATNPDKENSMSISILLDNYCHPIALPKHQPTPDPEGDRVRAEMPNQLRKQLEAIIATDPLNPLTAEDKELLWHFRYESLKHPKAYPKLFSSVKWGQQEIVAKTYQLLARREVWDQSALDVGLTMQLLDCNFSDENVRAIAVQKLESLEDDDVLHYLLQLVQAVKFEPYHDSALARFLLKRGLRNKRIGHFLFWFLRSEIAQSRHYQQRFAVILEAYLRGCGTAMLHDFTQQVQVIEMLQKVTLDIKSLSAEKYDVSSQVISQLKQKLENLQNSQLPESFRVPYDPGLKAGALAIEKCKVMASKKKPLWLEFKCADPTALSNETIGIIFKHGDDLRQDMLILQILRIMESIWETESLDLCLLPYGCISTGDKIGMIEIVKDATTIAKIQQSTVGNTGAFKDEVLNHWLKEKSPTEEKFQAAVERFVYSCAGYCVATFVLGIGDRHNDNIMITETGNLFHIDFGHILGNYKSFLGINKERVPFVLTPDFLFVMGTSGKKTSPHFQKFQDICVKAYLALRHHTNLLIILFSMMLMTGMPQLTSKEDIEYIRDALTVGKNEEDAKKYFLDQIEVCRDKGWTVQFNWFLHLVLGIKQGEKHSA

[3] = target: mTOR (Homo sapiens, UniProt P42345); experiment: mTOR enzyme assay (DELFIA format, His6-S6K substrate); type: biochemical
[4] = read-out: mTOR Kinase Median IC50

Structure (SMILES) | IC50 [1] [nM] | IC50 [2] [nM] | IC50 [3, 4] [nM] | melting point | IC50 [3] [nM]
CN(C)C1CCN(c2ccnc3c2c(/C=C2\Oc4cccc(O)c4C2=O)cn3C)C1 (centres unmarked) [Compound 112, (2Z)-2-({4-[3-(dimethylamino)pyrrolidin-1-yl]-1-methyl-1H-pyrrolo[2,3-b]pyridin-3-yl}methylene)-4-hydroxy-1-benzofuran-3(2H)-one] | 120 | 576 | 39 | 205 °C | –
CN(C)Cc1ccc(-c2ccnc3c2c(/C=C2\Oc4cccc(O)c4C2=O)cn3C)cc1 [Compound 113, (2Z)-2-[(4-{4-[(dimethylamino)methyl]phenyl}-1-methyl-1H-pyrrolo[2,3-b]pyridin-3-yl)methylene]-4-hydroxy-1-benzofuran-3(2H)-one] | 101 | 626 | 20 | 340 to 350 °C | –
Cn1cc(/C=C2\Oc3cccc(O)c3C2=O)c2c(N3CCC(C(N)=O)CC3)ccnc21 [Compound 114, 1-{3-[(Z)-(4-hydroxy-3-oxo-1-benzofuran-2(3H)-ylidene)methyl]-1-methyl-1H-pyrrolo[2,3-b]pyridin-4-yl}piperidine-4-carboxamide] | 29 | 127 | 0.7 | 280 to 287 °C | –
Cn1cc(/C=C2\Oc3cccc(O)c3C2=O)c2c(N3CCC(CN)CC3)ccnc21 [Compound 115, (2Z)-2-({4-[4-(aminomethyl)piperidin-1-yl]-1-methyl-1H-pyrrolo[2,3-b]pyridin-3-yl}methylene)-4-hydroxy-1-benzofuran-3(2H)-one] | 155 | 208 | 17 | 230 to 238 °C | –
Cn1cc(/C=C2\Oc3cccc(O)c3C2=O)c2c(N3CC4CC3CO4)ccnc21 (centres unmarked) [Compound 117, (2Z)-4-hydroxy-2-{[1-methyl-4-(2-oxa-5-azabicyclo[2.2.1]hept-5-yl)-1H-pyrrolo[2,3-b]pyridin-3-yl]methylene}-1-benzofuran-3(2H)-one] | 30 | 88 | 4.4 | 258 to 263 °C | –
CN(C)CCCN1CCN(c2ccnc3c2c(/C=C2\Oc4cccc(O)c4C2=O)cn3C)CC1 [Compound 118, (2Z)-2-[(4-{4-[3-(dimethylamino)propyl]piperazin-1-yl}-1-methyl-1H-pyrrolo[2,3-b]pyridin-3-yl)methylene]-4-hydroxy-1-benzofuran-3(2H)-one] | 286 | 791 | 20 | 263 to 268 °C | –
CN(C)C(=O)c1cccc(-c2ccnc3c2c(/C=C2\Oc4cccc(O)c4C2=O)cn3C)c1 [Compound 121, 3-{3-[(Z)-(4-hydroxy-3-oxo-1-benzofuran-2(3H)-ylidene)methyl]-1-methyl-1H-pyrrolo[2,3-b]pyridin-4-yl}-N,N-dimethylbenzamide] | 369 | 425 | 18 | 220 to 223 °C | –
CN(C)Cc1cccc(-c2ccnc3c2c(/C=C2\Oc4cccc(O)c4C2=O)cn3C)c1 [Compound 122, (2Z)-2-[(4-{3-[(dimethylamino)methyl]phenyl}-1-methyl-1H-pyrrolo[2,3-b]pyridin-3-yl)methylene]-4-hydroxy-1-benzofuran-3(2H)-one] | 60 | 279 | 18 | 308 to 315 °C | –
CN1CCN(C2CCN(c3ccnc4c3c(/C=C3\Oc5cccc(O)c5C3=O)cn4C)CC2)CC1 [Compound 129, (2Z)-4-hydroxy-2-({1-methyl-4-[4-(4-methylpiperazin-1-yl)piperidin-1-yl]-1H-pyrrolo[2,3-b]pyridin-3-yl}methylene)-1-benzofuran-3(2H)-one] | 47 | 167 | 14 | 239 to 242 °C | –
CNC(=O)Nc1ccc2c(c1)C(=O)/C(=C/c1cn(C)c3nccc(N4CC5CCC(C4)O5)c13)O2 [Compound 131, 1-methyl-3-[(2Z)-2-{[1-methyl-4-(8-oxa-3-azabicyclo[3.2.1]oct-3-yl)-1H-pyrrolo[2,3-b]pyridin-3-yl]methylene}-3-oxo-2,3-dihydro-1-benzofuran-5-yl]urea] | 580 | 557 | 9.5 | 247 to 255 °C | –
CNC(=O)c1ccc(-c2ccnc3c2c(/C=C2\Oc4cccc(O)c4C2=O)cn3C)cc1 [Compound 132, 4-{3-[(Z)-(4-hydroxy-3-oxo-1-benzofuran-2(3H)-ylidene)methyl]-1-methyl-1H-pyrrolo[2,3-b]pyridin-4-yl}-N-methylbenzamide] | 33 | 83 | 1.7 | 175 °C | –
CNC(=O)Nc1ccc(-c2ccnc3c2c(/C=C2\Oc4cccc(O)c4C2=O)cn3C)cc1 [Compound 133, 1-(4-{3-[(Z)-(4-hydroxy-3-oxo-1-benzofuran-2(3H)-ylidene)methyl]-1-methyl-1H-pyrrolo[2,3-b]pyridin-4-yl}phenyl)-3-methylurea] | 37 | 30 | 1.5 | 298 to 305 °C (dec.) | –
CC(=O)c1ccc(-c2ccnc3c2c(/C=C2\Oc4cccc(O)c4C2=O)cn3C)cc1 [Compound 134, (2Z)-2-{[4-(4-acetylphenyl)-1-methyl-1H-pyrrolo[2,3-b]pyridin-3-yl]methylene}-4-hydroxy-1-benzofuran-3(2H)-one] | 55 | 89 | 3.8 | 250 to 253 °C | –
Cn1cc(/C=C2\Oc3cccc(O)c3C2=O)c2c(N3CCC(N)CC3)ccnc21 [Compound 139, (2Z)-2-{[4-(4-aminopiperidin-1-yl)-1-methyl-1H-pyrrolo[2,3-b]pyridin-3-yl]methylene}-4-hydroxy-1-benzofuran-3(2H)-one] | 119 | 1270 | 19 | 260 °C | –
CN(C)C(=O)Nc1ccc(-c2ccnc3c2c(/C=C2\Oc4cccc(O)c4C2=O)cn3C)cc1 [Compound 140, 3-(4-{3-[(Z)-(4-hydroxy-3-oxo-1-benzofuran-2(3H)-ylidene)methyl]-1-methyl-1H-pyrrolo[2,3-b]pyridin-4-yl}phenyl)-1,1-dimethylurea] | 59 | 74 | 2 | 235 to 238 °C | –
CN(C)C(=O)c1ccccc1-c1ccnc2c1c(/C=C1\Oc3cccc(O)c3C1=O)cn2C [Compound 141, 2-{3-[(Z)-(4-hydroxy-3-oxo-1-benzofuran-2(3H)-ylidene)methyl]-1-methyl-1H-pyrrolo[2,3-b]pyridin-4-yl}-N,N-dimethylbenzamide] | 5900 | 1860 | 180 | 293 to 295 °C | –
Cn1cc(/C=C2\Oc3cccc(O)c3C2=O)c2c(-c3ccc(C(=O)N4CC5CCC(C4)O5)cc3)ccnc21 [Compound 144, (2Z)-4-hydroxy-2-({1-methyl-4-[4-(8-oxa-3-azabicyclo[3.2.1]oct-3-ylcarbonyl)phenyl]-1H-pyrrolo[2,3-b]pyridin-3-yl}methylidene)-1-benzofuran-3(2H)-one] | 57 | 77 | 0.6 | 296 to 298 °C | –
CN(C)C(=O)C1CCN(c2ccnc3c2c(/C=C2\Oc4cccc(O)c4C2=O)cn3C)CC1 [Compound 145, 1-{3-[(Z)-(4-hydroxy-3-oxo-1-benzofuran-2(3H)-ylidene)methyl]-1-methyl-1H-pyrrolo[2,3-b]pyridin-4-yl}-N,N-dimethylpiperidine-4-carboxamide] | 38 | 74 | 0.6 | 185 to 195 °C | –
Cn1cc(/C=C2\Oc3cccc(O)c3C2=O)c2c(N3CCC(C(=O)NCCO)CC3)ccnc21 [Compound 148, N-(2-hydroxyethyl)-1-{3-[(Z)-(4-hydroxy-3-oxo-1-benzofuran-2(3H)-ylidene)methyl]-1-methyl-1H-pyrrolo[2,3-b]pyridin-4-yl}piperidine-4-carboxamide] | 39 | 94 | 0.7 | 232 to 242 °C | –
Cn1cc(/C=C2\Oc3cccc(O)c3C2=O)c2c(N3CCC(C(=O)N4CCOCC4)CC3)ccnc21 [Compound 150, (2Z)-4-hydroxy-2-({1-methyl-4-[4-(morpholin-4-ylcarbonyl)piperidin-1-yl]-1H-pyrrolo[2,3-b]pyridin-3-yl}methylidene)-1-benzofuran-3(2H)-one] | 63 | 50 | 1.4 | 358 to 361 °C | –
Cn1cc(/C=C2\Oc3cccc(O)c3C2=O)c2c(N3C4CCC3COC4)ccnc21 [Compound 151, (2Z)-4-hydroxy-2-{[1-methyl-4-(3-oxa-8-azabicyclo[3.2.1]oct-8-yl)-1H-pyrrolo[2,3-b]pyridin-3-yl]methylidene}-1-benzofuran-3(2H)-one] | 19 | 49 | – | 284 to 291 °C | 2.1
Cn1cc(/C=C2\Oc3cccc(O)c3C2=O)c2c(N3CCC(C(=O)N4CCCC4)CC3)ccnc21 [Compound 152, (2Z)-4-hydroxy-2-({1-methyl-4-[4-(pyrrolidin-1-ylcarbonyl)piperidin-1-yl]-1H-pyrrolo[2,3-b]pyridin-3-yl}methylidene)-1-benzofuran-3(2H)-one] | 31 | 32 | 0.6 | 191 to 207 °C | –
CC(=O)Nc1ccc2c(c1)C(=O)/C(=C/c1cn(C)c3nccc(-c4ccccc4)c13)O2 [Compound 154, N-{(2Z)-2-[(1-methyl-4-phenyl-1H-pyrrolo[2,3-b]pyridin-3-yl)methylidene]-3-oxo-2,3-dihydro-1-benzofuran-5-yl}acetamide] | 1390 | 1070 | 69 | 332 to 335 °C | –
